What was measured:
Assay type in all cases: binding
[1] = target: T1, CDK6 (Homo sapiens, UniProt Q00534); assay: Gel-based ABPP, isoform specificity on CDK6; conditions: dose-dependent treatment
Experimental: Activity-based protein profiling (ABPP) was performed as follows. CDK4 was diluted in PBS to 50 nM, then 50 μL was added to each well of a 96-well PCR plate. Ligands were dissolved fresh in DMSO to 5 μM, and 1 μL was added so each well contained a unique ligand at the indicated concentration. Wells were mixed and allowed to incubate 1 h at 23° C. Ligands were then chased with fresh Compound 301 with 1 μL of 5 μM added to each well (100 nM final), wells mixed and allowed to incubate 1 h at 23° C. Excess oxaziridine was quenched with N-acetyl methionine via addition of 1 μL of 10 mM DMSO stock (200 μM final), wells mixed and allowed to incubate 1 h at 23° C. A stock was prepared 1:5 of 12.5 μM DBCO-Cy3 in DMSO: 1.2% SDS/PBS. To each well was added 6 μL of this stock, the wells mixed and allowed to incubate overnight protected from light at 23° C. The next morning 30 μL of 4×Laemmli's buffer containing 10% BME was added to each well. The plate was sealed and brought to 95° C. for 6 min. Samples were loaded and separated on precast 4-20% TGX gels and scanned by ChemiDoc MP for measuring in-gel fluorescence. After that, the total protein level on the gel was assayed by silver staining according to the manufacturer's protocol and scanned by ChemiDoc MP.
The isoform specificity was tested with two closely-related congeners, CDK1 and CDK6.

[2] = target: CDK4 (Homo sapiens, UniProt P11802); assay: Shotgun proteomics (MS/MS) site of modification on CDK4; conditions: 50 μM oxaziridine, 30 min, 23° C.
Experimental: To more accurately assess residue reactivity of oxaziridines on CDK4, 10 μg of CDK4 was diluted with 90 μg whole cell extract derived from mouse liver to a total volume of 100 μL in PBS. Protein mixture was treated with 50 μM oxaziridine (DMSO) and allowed to incubate at 23° C. for 30 min. Labeled protein was precipitated via addition of 900 μL MeOH at −80° C. overnight. The next day, sample was spun at max speed at 4° C. for 10 min. The pellet was gently washed 3 times with a solution of ice cold MeOH. The supernatant was then removed, and the pellet resuspended in 30 μL freshly prepared 8 M urea/PBS. A 5× stock of ProteaseMAX (Promega; cat no. V2071) was prepared by dissolved the pellet in 100 μL ammonium bicarbonate. To the protein mixture was added 30 μL 1×ProteaseMAX, 40 μL ammonium bicarbonate, and 10 μL of 110 mM freshly prepared TCEP (Pierce; cat no. 20490). […]
Peptides from all experiments were analyzed on a Q Exactive Plus mass spectrometer (Thermo Fisher Scientific); pure proteins were analyzed on a C18 only column, while complex proteomes were analyzed via a five step Multidimensional Protein Identification Technology (MudPIT).^7 In both cases, Inlines (IDEX; cat no.M-520) were fitted with ˜20 cm of 250 μm tubing and prepacked with 4 cm of Aqua C18 reverse-phase resin (Phenomenex; cat no. 04A-4299). […]
Data were analyzed with Byologic (Protein Metrics Inc.). […]

[3] = target: T1, CDK6; assay: Shotgun proteomics (MS/MS) modification of purified CDK6; conditions: shotgun proteomics on purified protein

T1 sequence (Q00534 whole entry, canonical isoform): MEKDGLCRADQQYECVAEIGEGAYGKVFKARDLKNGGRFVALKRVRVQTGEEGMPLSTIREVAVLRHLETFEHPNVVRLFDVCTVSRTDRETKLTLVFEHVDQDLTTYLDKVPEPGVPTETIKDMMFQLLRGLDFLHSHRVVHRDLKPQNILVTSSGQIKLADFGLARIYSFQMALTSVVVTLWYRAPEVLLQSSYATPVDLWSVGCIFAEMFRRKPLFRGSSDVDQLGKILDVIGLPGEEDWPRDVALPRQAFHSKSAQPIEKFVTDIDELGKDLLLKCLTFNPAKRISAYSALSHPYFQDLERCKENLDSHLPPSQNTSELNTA
Sequence of CDK4 (P11802 whole entry): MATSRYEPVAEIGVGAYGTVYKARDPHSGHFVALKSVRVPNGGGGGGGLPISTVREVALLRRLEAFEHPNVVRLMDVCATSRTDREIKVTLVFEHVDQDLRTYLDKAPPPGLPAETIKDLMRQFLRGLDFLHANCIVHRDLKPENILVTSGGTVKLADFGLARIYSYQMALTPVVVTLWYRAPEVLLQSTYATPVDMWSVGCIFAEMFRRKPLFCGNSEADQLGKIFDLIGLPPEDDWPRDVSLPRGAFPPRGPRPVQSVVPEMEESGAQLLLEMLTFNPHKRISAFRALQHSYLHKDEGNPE
Sequence of CDK4 (P24385 whole entry partner): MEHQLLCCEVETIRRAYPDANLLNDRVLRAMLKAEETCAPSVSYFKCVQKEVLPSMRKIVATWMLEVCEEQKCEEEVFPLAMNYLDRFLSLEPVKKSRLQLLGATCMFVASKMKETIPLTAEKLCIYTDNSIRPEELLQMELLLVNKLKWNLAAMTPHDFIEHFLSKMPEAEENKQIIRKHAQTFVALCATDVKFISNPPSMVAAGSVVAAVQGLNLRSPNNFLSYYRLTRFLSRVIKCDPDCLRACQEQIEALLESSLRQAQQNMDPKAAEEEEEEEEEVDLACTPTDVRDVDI

labeling against CDK6 by gel analysis [1]: no dose-dependent labeling
site(s) of modification on CDK4 [2]: M169, with minor labeling at M264
modifications on CDK6 [3]: No modifications
Structure (SMILES): O=C(N1CC2COCC2C1)N1OC1c1ccccc1 (stereo not drawn) [Compound 148]
